The source of these data is patent US20100075368A1, “Media for recovery of microorganism in the presence of antibiotics” (Millipore Corporation, priority 2004, published 2010).

What all share (type): cell-based
Test [1] relates to P. aeruginosa (ATCC 9027). As to the kind of experiment: Simulated air monitoring: antibiotic disc zone of inhibition on SCDA. As to conditions: Pseudomonas aeruginosa, disc: ofloxacin 5 ug. Here is the method:
(§1) One method of monitoring air in an antibiotic manufacturing plant is to impact air onto an agar surface collecting both microorganisms and antibiotic on the agar surface. This test was simulated by spreading microorganisms over an agar surface containing varying amounts of magnesium cation and then placing disks containing antibiotics onto the agar surface. The zone of inhibition around each disk was measured to give an indication of the ability of the medium to neutralize the effect of the antibiotic (method followed is similar to the susceptibility disc test used in clinical microbiology). S. aureus (ATCC 6538), P. aeruginosa (ATCC 9027) or E. coli (ATCC 25922) were spread on the agar surface of SCDA containing 0.1M, 0.2M, 0.3M, 0.4M or 0.5M magnesium cation. Discs impregnated with a known amount of antibiotic were then placed onto the bacteria on the agar plate. Plates were incubated and the zone of inhibition of bacterial growth was measured.

The subject of the next test is E. coli (ATCC 25922). The description is as above. As to conditions: Escherichia coli, disc: ofloxacin 5 ug. Here is the method:
as §1

Test [2] has as its system S. aureus (ATCC 6538). The description is as above. As to conditions: Staphylococcus aureus, disc: ofloxacin 5 ug. Here is the method:
as §1

Test [3] relates to S. aureus (ATCC 6538). As to the kind of experiment: Direct inoculation of SCDB broth tubes, growth in presence of antibiotic. As to conditions: ciprofloxacin 100 μg/mL in SCDB, 200 cfu.
Experimental: Test tubes containing SCDB media in the presence or absence of magnesium cation or ciprofloxacin antibiotic were inoculated with 200 colony forming units (cfu) of S. aureus (ATCC 6538). Sample A was used with a ciprofloxacin sample (100 μg/mL) and contained no divalent cation constituent. B was used with ciprofloxacin (100 μg/mL) and contained 0.5 M magnesium cation. C was used with a control and contained 0.5M of the same divalent cation of B. D was used with a control and contained no divalent cation.
[4] abbreviates: ATCC9027, 0.0 M cation in SCDA, streptomycin 10 ug, doxycycline 30 ug.
Setting [5] is: ATCC9027, 0.1M magnesium cation in SCDA, streptomycin 10 ug, doxycycline 30 ug.
Where [6] appears, read: ATCC9027, 0.3M magnesium cation in SCDA, streptomycin 10 ug, doxycycline 30 ug.
The mark [7] stands for this setting: ATCC9027, 0.5M magnesium cation in SCDA, streptomycin 10 ug, doxycycline 30 ug.
[8] abbreviates: ATCC25922, 0.0 M cation in SCDA, streptomycin 10 ug, doxycycline 30 ug.
Setting [9] is: ATCC25922, 0.1M magnesium cation in SCDA, streptomycin 10 ug, doxycycline 30 ug.
The mark [10] stands for this setting: ATCC25922, 0.3M magnesium cation in SCDA, streptomycin 10 ug, doxycycline 30 ug.
Where [11] appears, read: ATCC25922, 0.5M magnesium cation in SCDA, streptomycin 10 ug, doxycycline 30 ug.
[12] abbreviates: ATCC6538, 0.0 M cation in SCDA, streptomycin 10 ug, doxycycline 30 ug.
Where [13] appears, read: ATCC6538, 0.1M magnesium cation in SCDA, streptomycin 10 ug, doxycycline 30 ug.
The mark [14] stands for this setting: ATCC6538, 0.3M magnesium cation in SCDA, streptomycin 10 ug, doxycycline 30 ug.
The mark [15] stands for this setting: ATCC6538, 0.5M magnesium cation in SCDA, streptomycin 10 ug, doxycycline 30 ug.

The zone of inhibition is the size of the clear area around the sample on an inoculated plate. In the case of `C[C@H]1c2cccc(O)c2C(=O)C2=C(O)[C@]3(O)C(=O)C(C(N)=O)=C(O)[C@@H](N(C)C)[C@@H]3[C@@H](O)[C@@H]21` [Doxycycline, doxycycline], the zone of inhibition at 30 µg/disc in test [1] (setting [4]) is 6 mm; in test [1] (setting [5]) it was 6 mm; in test [1] (setting [6]) it was 6 mm; in test [1] (setting [7]), 6 mm; with E. coli (ATCC 25922) (setting [8]), 18 mm; in the test on E. coli (ATCC 25922) (setting [9]), 6 mm. The zone of inhibition at 30 µg/disc in the test with E. coli (ATCC 25922) (setting [10]) was 6 mm; in the test with E. coli (ATCC 25922) (setting [11]) it was 6 mm; with S. aureus (ATCC 6538) [2] (setting [12]), 25 mm; in the test on S. aureus (ATCC 6538) [2] (setting [13]), 13 mm; in the test on S. aureus (ATCC 6538) [2] (setting [14]) it was 11 mm; with S. aureus (ATCC 6538) [2] (setting [15]) it was 13 mm.

As for `[H]/N=C(/N)N[C@H]1[C@H](O)[C@@H](O)[C@H](O[C@@H]2O[C@@H](C)[C@](O)(C=O)[C@H]2O[C@@H]2O[C@@H](CO)[C@H](O)[C@@H](O)[C@@H]2NC)[C@@H](N/C(N)=N\[H])[C@@H]1O` [Streptomycin, streptomycin], the zone of inhibition at 10 µg/disc is 11 mm in test [1] (setting [4]); 6 mm in test [1] (setting [5]); 6 mm in test [1] (setting [6]); 6 mm in test [1] (setting [7]); 14 mm in the test on E. coli (ATCC 25922) (setting [8]); 12 mm with E. coli (ATCC 25922) (setting [9]). The zone of inhibition at 10 µg/disc is 9 mm in the test with E. coli (ATCC 25922) (setting [10]); 6 mm in the test with E. coli (ATCC 25922) (setting [11]); 17 mm in the test on S. aureus (ATCC 6538) [2] (setting [12]); 12 mm in the test on S. aureus (ATCC 6538) [2] (setting [13]); 7 mm in the test with S. aureus (ATCC 6538) [2] (setting [14]); 8 mm in the test with S. aureus (ATCC 6538) [2] (setting [15]).

For `CC1COc2c(N3CCN(C)CC3)c(F)cc3c(=O)c(C(=O)O)cn1c23` (centres unmarked) [Ofloxacin, ofloxacin], the zone of inhibition at 5 µg/disc in test [1] (setting [4]) was 20 mm; in test [1] (setting [5]) it was 6 mm; in test [1] (ATCC9027, 0.2M magnesium cation in SCDA) it was 6 mm; in test [1] (setting [6]), 6 mm; in test [1] (ATCC9027, 0.4M magnesium cation in SCDA) it was 6 mm; in test [1] (setting [7]), 6 mm. The zone of inhibition at 5 µg/disc was 26 mm with E. coli (ATCC 25922) (setting [8]); 13 mm with E. coli (ATCC 25922) (setting [9]); 13 mm in the test on E. coli (ATCC 25922) (ATCC25922, 0.2M magnesium cation in SCDA); 13 mm in the test on E. coli (ATCC 25922) (setting [10]); 12 mm in the test with E. coli (ATCC 25922) (ATCC25922, 0.4M magnesium cation in SCDA); 12 mm in the test on E. coli (ATCC 25922) (setting [11]). Also, the zone of inhibition at 5 µg/disc with S. aureus (ATCC 6538) [2] (setting [12]) is 23 mm; in the test on S. aureus (ATCC 6538) [2] (setting [13]), 11 mm; with S. aureus (ATCC 6538) [2] (ATCC6538, 0.2M magnesium cation in SCDA), 8 mm; in the test on S. aureus (ATCC 6538) [2] (setting [14]) it was 6 mm; in the test with S. aureus (ATCC 6538) [2] (ATCC6538, 0.4M magnesium cation in SCDA) it was 7 mm; in the test with S. aureus (ATCC 6538) [2] (setting [15]), 6 mm.

As for `O=C(O)c1cn(C2CC2)c2cc(N3CCNCC3)c(F)cc2c1=O` [Ciprofloxacin, ciprofloxacin], the “Result (growth of microorganism)” value is listed as “Growth” with S. aureus (ATCC 6538) [3] (0.5 M magnesium cation added to broth) and “No growth” in the test on S. aureus (ATCC 6538) [3] (divalent cation added to broth: None).
